Source: PubChem BioAssay (NCI)
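Values below derive from 48-hour exposures of cells grown in 96-well plates, with endpoints linearly interpolated between the two concentrations bracketing the appropriate inhibition level. TGI: total growth inhibition.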

Assays:
Experiment in all cases: NCI tumour cell line growth inhibition, 48 h
IGROV1 ovarian = system: IGROV1 ovarian
UO-31 renal = system: UO-31 renal
DLD-1 colon = system: DLD-1 colon
OVCAR-8 ovarian = system: OVCAR-8 ovarian
HOP-62 NSCLC = system: HOP-62 NSCLC
SW-620 colon = system: SW-620 colon
SK-OV-3 ovarian = system: SK-OV-3 ovarian
HCT-116 colon = system: HCT-116 colon
KM20L2 colon = system: KM20L2 colon
A549 NSCLC = system: A549 NSCLC
SK-MEL-5 melanoma = system: SK-MEL-5 melanoma
NCI-H460 lung = system: NCI-H460 lung
SK-MEL-28 melanoma = system: SK-MEL-28 melanoma
SR leukemia = system: SR leukemia
SNB-19 CNS = system: SNB-19 CNS
NCI-H522 lung = system: NCI-H522 lung
KM12 colon = system: KM12 colon
OVCAR-3 ovarian = system: OVCAR-3 ovarian
MALME-3M melanoma = system: MALME-3M melanoma
COLO 205 colon = system: COLO 205 colon
LOX IMVI melanoma = system: LOX IMVI melanoma
K-562 leukemia = system: K-562 leukemia
TK-10 renal = system: TK-10 renal
786-0 renal = system: 786-0 renal
HCC-2998 colon = system: HCC-2998 colon
U251 CNS = system: U251 CNS
NCI-H226 lung = system: NCI-H226 lung
HCT-15 colon = system: HCT-15 colon
XF 498 CNS = system: XF 498 CNS
M19-MEL melanoma = system: M19-MEL melanoma
SNB-75 CNS = system: SNB-75 CNS
NCI-H23 lung = system: NCI-H23 lung
MOLT-4 leukemia = system: MOLT-4 leukemia
HOP-92 NSCLC = system: HOP-92 NSCLC
CCRF-CEM leukemia = system: CCRF-CEM leukemia
LXFL 529 NSCLC = system: LXFL 529 NSCLC
SN12C renal = system: SN12C renal
EKVX NSCLC = system: EKVX NSCLC
HT29 colon = system: HT29 colon
SF-268 CNS = system: SF-268 CNS
DMS 273 small cell lung = system: DMS 273 small cell lung
OVCAR-4 ovarian = system: OVCAR-4 ovarian
UACC-257 melanoma = system: UACC-257 melanoma
ACHN renal = system: ACHN renal
RXF 393 renal = system: RXF 393 renal
SF-295 CNS = system: SF-295 CNS
M14 melanoma = system: M14 melanoma
UACC-62 melanoma = system: UACC-62 melanoma
SK-MEL-2 melanoma = system: SK-MEL-2 melanoma
SF-539 CNS = system: SF-539 CNS
HL-60(TB) leukemia = system: HL-60(TB) leukemia
SNB-78 CNS = system: SNB-78 CNS
A498 renal = system: A498 renal
RPMI-8226 leukemia = system: RPMI-8226 leukemia
DMS 114 small cell lung = system: DMS 114 small cell lung

Which results are given for CCCOP1(=O)C=C(O)C(Cl)=C(C)C1 (stereo not drawn)?
TGI (IGROV1 ovarian): > 100 µM; TGI (UO-31 renal): > 100 µM; TGI (DLD-1 colon): > 100 µM; TGI (OVCAR-8 ovarian): > 100 µM; TGI (HOP-62 NSCLC): > 100 µM; TGI (SW-620 colon): > 100 µM; TGI (SK-OV-3 ovarian): > 100 µM; TGI (HCT-116 colon): > 100 µM; TGI (KM20L2 colon): > 100 µM; TGI (A549 NSCLC): > 100 µM; TGI (SK-MEL-5 melanoma): > 100 µM; TGI (NCI-H460 lung): > 100 µM; TGI (SK-MEL-28 melanoma): > 100 µM; TGI (SR leukemia): > 100 µM; TGI (SNB-19 CNS): > 100 µM; TGI (NCI-H522 lung): > 100 µM; TGI (KM12 colon): > 100 µM; TGI (OVCAR-3 ovarian): > 100 µM; TGI (MALME-3M melanoma): > 100 µM; TGI (COLO 205 colon): > 100 µM; TGI (LOX IMVI melanoma): > 100 µM; TGI (K-562 leukemia): > 100 µM; TGI (TK-10 renal): > 100 µM; TGI (786-0 renal): > 100 µM; TGI (HCC-2998 colon): > 100 µM; TGI (U251 CNS): > 100 µM; TGI (NCI-H226 lung): > 100 µM; TGI (HCT-15 colon): > 100 µM; TGI (XF 498 CNS): > 100 µM; TGI (M19-MEL melanoma): > 100 µM; TGI (SNB-75 CNS): > 100 µM; TGI (NCI-H23 lung): > 100 µM; TGI (MOLT-4 leukemia): > 100 µM; TGI (HOP-92 NSCLC): > 100 µM; TGI (CCRF-CEM leukemia): > 100 µM; TGI (LXFL 529 NSCLC): > 100 µM; TGI (SN12C renal): > 100 µM; TGI (EKVX NSCLC): > 100 µM; TGI (HT29 colon): > 100 µM; TGI (SF-268 CNS): > 100 µM; TGI (DMS 273 small cell lung): > 100 µM; TGI (OVCAR-4 ovarian): > 100 µM; TGI (UACC-257 melanoma): > 100 µM; TGI (ACHN renal): > 100 µM; TGI (RXF 393 renal): > 100 µM; TGI (SF-295 CNS): > 100 µM; TGI (M14 melanoma): > 100 µM; TGI (UACC-62 melanoma): > 100 µM; TGI (SK-MEL-2 melanoma): > 100 µM; TGI (SF-539 CNS): > 100 µM; TGI (HL-60(TB) leukemia): > 100 µM; TGI (SNB-78 CNS): > 100 µM

What does the source list for Cc1nc2c(n1CC(C)C)C(=O)c1ccccc1C2=O?
TGI (IGROV1 ovarian): > 100 µM; TGI (UO-31 renal): > 100 µM; TGI (DLD-1 colon): > 100 µM; TGI (OVCAR-8 ovarian): > 100 µM; TGI (HOP-62 NSCLC): > 100 µM; TGI (SW-620 colon): > 100 µM; TGI (SK-OV-3 ovarian): > 100 µM; TGI (HCT-116 colon): 67.4 µM; TGI (KM20L2 colon): > 100 µM; TGI (A549 NSCLC): 97.7 µM; TGI (SK-MEL-5 melanoma): 34.7 µM; TGI (NCI-H460 lung): 54.2 µM; TGI (SK-MEL-28 melanoma): > 100 µM; TGI (SR leukemia): > 100 µM; TGI (SNB-19 CNS): > 100 µM; TGI (NCI-H522 lung): 76.5 µM; TGI (KM12 colon): > 100 µM; TGI (OVCAR-3 ovarian): 82.1 µM; TGI (MALME-3M melanoma): 40.6 µM; TGI (COLO 205 colon): > 100 µM; TGI (LOX IMVI melanoma): > 100 µM; TGI (K-562 leukemia): > 100 µM; TGI (TK-10 renal): > 100 µM; TGI (786-0 renal): > 100 µM; TGI (HCC-2998 colon): > 100 µM; TGI (U251 CNS): > 100 µM; TGI (NCI-H226 lung): > 100 µM; TGI (HCT-15 colon): > 100 µM; TGI (XF 498 CNS): 95.9 µM; TGI (M19-MEL melanoma): 29.6 µM; TGI (SNB-75 CNS): > 100 µM; TGI (NCI-H23 lung): 49.2 µM; TGI (MOLT-4 leukemia): > 100 µM; TGI (HOP-92 NSCLC): 65.7 µM; TGI (CCRF-CEM leukemia): > 100 µM; TGI (LXFL 529 NSCLC): > 100 µM; TGI (SN12C renal): > 100 µM; TGI (EKVX NSCLC): > 100 µM; TGI (HT29 colon): > 100 µM; TGI (SF-268 CNS): > 100 µM; TGI (DMS 273 small cell lung): > 100 µM; TGI (OVCAR-4 ovarian): > 100 µM; TGI (UACC-257 melanoma): 45.4 µM; TGI (ACHN renal): > 100 µM; TGI (RXF 393 renal): > 100 µM; TGI (SF-295 CNS): > 100 µM; TGI (M14 melanoma): > 100 µM; TGI (UACC-62 melanoma): 50.5 µM; TGI (SK-MEL-2 melanoma): 74.7 µM; TGI (SF-539 CNS): 87.6 µM; TGI (HL-60(TB) leukemia): > 100 µM; TGI (SNB-78 CNS): > 100 µM

What does the source list for CCOC(=O)C(C(CC(=O)OC)NC(=O)OCc1ccccc1)C1(C)OCCO1 (stereo not drawn)?
TGI (IGROV1 ovarian): > 100 µM; TGI (A498 renal): > 100 µM; TGI (UO-31 renal): > 100 µM; TGI (DLD-1 colon): > 100 µM; TGI (OVCAR-8 ovarian): > 100 µM; TGI (HOP-62 NSCLC): > 100 µM; TGI (SW-620 colon): > 100 µM; TGI (HCT-116 colon): > 100 µM; TGI (KM20L2 colon): > 100 µM; TGI (A549 NSCLC): > 100 µM; TGI (SK-MEL-5 melanoma): > 100 µM; TGI (NCI-H460 lung): > 100 µM; TGI (SK-MEL-28 melanoma): > 100 µM; TGI (SR leukemia): > 100 µM; TGI (SNB-19 CNS): > 100 µM; TGI (OVCAR-3 ovarian): > 100 µM; TGI (MALME-3M melanoma): > 100 µM; TGI (COLO 205 colon): > 100 µM; TGI (LOX IMVI melanoma): > 100 µM; TGI (K-562 leukemia): > 100 µM; TGI (TK-10 renal): > 100 µM; TGI (786-0 renal): > 100 µM; TGI (HCC-2998 colon): > 100 µM; TGI (U251 CNS): > 100 µM; TGI (NCI-H226 lung): > 100 µM; TGI (HCT-15 colon): > 100 µM; TGI (XF 498 CNS): > 100 µM; TGI (SNB-75 CNS): > 100 µM; TGI (NCI-H23 lung): > 100 µM; TGI (MOLT-4 leukemia): > 100 µM; TGI (CCRF-CEM leukemia): > 100 µM; TGI (LXFL 529 NSCLC): > 100 µM; TGI (SN12C renal): > 100 µM; TGI (EKVX NSCLC): > 100 µM; TGI (HT29 colon): > 100 µM; TGI (SF-268 CNS): > 100 µM; TGI (DMS 273 small cell lung): > 100 µM; TGI (OVCAR-4 ovarian): > 100 µM; TGI (UACC-257 melanoma): > 100 µM; TGI (RPMI-8226 leukemia): > 100 µM; TGI (ACHN renal): > 100 µM; TGI (RXF 393 renal): > 100 µM; TGI (SF-295 CNS): > 100 µM; TGI (M14 melanoma): > 100 µM; TGI (UACC-62 melanoma): > 100 µM; TGI (DMS 114 small cell lung): > 100 µM; TGI (SK-MEL-2 melanoma): > 100 µM; TGI (SF-539 CNS): > 100 µM; TGI (HL-60(TB) leukemia): > 100 µM
